According to patent US8653032B2, “Pharmaceutical composition for preventing / treating TRPV1 activity-related and inflammation-related diseases or conditions containing maillard peptide separated from well-aged traditional soy sauce as active ingredient” (Korea Food Research Institute, priority 2009, dated 2014):

Test system: COX-2
Assay: COX-2 promoter reporter gene (luciferase) assay, COX-2 induced with TPA, cells transfected with TRPV1 of human
Format: cell-based
Details: Maillard peptides 0.1% and 0.2%
Procedure: In order to measure COX-2 activity inhibition effect of Maillard peptides of the present invention, the following experiment was performed.
[…] cells were cultivated in the growth medium (DMEM, 10% calf serum, 100 units/ml penicillin, 100 μg/ml streptomycin) at 37° C., atmosphere: air 95% (v/v), carbon dioxide, 5% to generate cells growing exponentially; the medium was removed, washed with PBS, and treated with trypsin to separate the cultivated cells; and the separated cells were placed in the medium containing serum to inactivate trypsin. Centrifugal filtration was performed at 200/g for 2 min to obtain cell pellets. […] The transformed plasmid cells were washed with PBS, and dissolution buffer (125 mM Tris pH 7.8, 10 mM CDTA, 10 mM DTT, 50% glycerol, 5% triton X-100) was added to destroy the cells and obtain supernatant liquid, and the amount (concentration) of protein was quantified with Bradford assay. Luciferase activity was measured by adding 100 μl of buffer(20 mM trysin, 1.07 mM (MgCO3)4Mg(OH)2H20, 2.67 mM MgSO4, 0.1 mM EDTA, 33.3 mM DTT, 270 μM coenzyme A(Lithium salt), 470 μM luciferin, 530 μM ATP) and measuring light emission with Luminometer (LUMAT LB 9501/16) for 20 min. […]

C=C(C)[C@]12C[C@@H](C)[C@@]34O[C@](Cc5ccccc5)(O[C@@H]1[C@@H]3C=C(COC(=O)Cc1ccc(O)c(OC)c1)C[C@]1(O)C(=O)C(C)=C[C@@H]41)O2 [resiniferatoxin]
COX-2 activity induced by TPA: decreased
